From patent US9604940B2 (Chroma Therapeutics Ltd., priority 2012, dated 2017) come the findings set out here.

Structures can show the parent of a compound that is named as a salt.

One assay has as its system MCP-1. The assay is described as follows: MCSF-stimulation of human whole blood, MCP-1 levels by sandwich ELISA. The format is cell-based. The settings on record: inhibitor 2 hours before MCSF 50 ng/ml, 22 hrs, MCP-1 in cell-free supernatants, read-out: Inhibitor activity versus MCP-1. On the procedure: Macrophage Colony-Stimulating Factor (MCSF)-Stimulation of Human Whole Blood
Whole blood was taken by venous puncture using heparinised vacutainers (Becton Dickinson) and diluted in an equal volume of RPMI1640 tissue culture media (Sigma). 100 μl was plated in V-bottomed 96 well tissue culture treated plates. 2 hours after the addition of the inhibitor in 100 μl of RPMI1640 media, the blood was stimulated with MCSF (Peprotech: #300-25-10 uG) at a final concentration of 50 ng/ml and incubated at 37° C. in 5% CO2 for 22 hrs. MCP-1 levels were measured from cell-free supernatants by sandwich ELISA developed from MCP-1/CCL2 Duoset (R&D Systems #DY279). Additional reagents required for ELISA were purchased from Sigma, (BSA: A3059, 10×PBS: D1408, Tween20: P5927) R&D Systems, (colour reagent: #DY999 and stop solution: #DY994) and Costar (96-well EIA plates: #2592). Assays were carried out following the manufacturer's instructions with the following modifications: Cell-free supernatants were diluted 30:70 in reagent diluent before assay. All incubations except capture antibody were carried out with shaking at 550 rpm. 3 washes were carried out between steps, and incubation times were blocking 1.5 hr, sample/standard and detection antibody incubations 2 hr, HRP incubation 30 min, colour development 20 min. • IC50 values were allocated to one of five ranges as follows: • Range A: IC50<100 nM • Range B: 100 nM<IC50<300 nM • Range C: 300 nM<1050<1000 nM • Range D: 1000 nM<IC50<5000 nM • Range E: IC50>5000 nM • NT=not tested

For the next assay, the target named is T1, CSF1R (FMS) (Homo sapiens, UniProt P07333).
T1 construct: purchased Invitrogen (Paisley, UK)
T1 sequence (P07333 20-972): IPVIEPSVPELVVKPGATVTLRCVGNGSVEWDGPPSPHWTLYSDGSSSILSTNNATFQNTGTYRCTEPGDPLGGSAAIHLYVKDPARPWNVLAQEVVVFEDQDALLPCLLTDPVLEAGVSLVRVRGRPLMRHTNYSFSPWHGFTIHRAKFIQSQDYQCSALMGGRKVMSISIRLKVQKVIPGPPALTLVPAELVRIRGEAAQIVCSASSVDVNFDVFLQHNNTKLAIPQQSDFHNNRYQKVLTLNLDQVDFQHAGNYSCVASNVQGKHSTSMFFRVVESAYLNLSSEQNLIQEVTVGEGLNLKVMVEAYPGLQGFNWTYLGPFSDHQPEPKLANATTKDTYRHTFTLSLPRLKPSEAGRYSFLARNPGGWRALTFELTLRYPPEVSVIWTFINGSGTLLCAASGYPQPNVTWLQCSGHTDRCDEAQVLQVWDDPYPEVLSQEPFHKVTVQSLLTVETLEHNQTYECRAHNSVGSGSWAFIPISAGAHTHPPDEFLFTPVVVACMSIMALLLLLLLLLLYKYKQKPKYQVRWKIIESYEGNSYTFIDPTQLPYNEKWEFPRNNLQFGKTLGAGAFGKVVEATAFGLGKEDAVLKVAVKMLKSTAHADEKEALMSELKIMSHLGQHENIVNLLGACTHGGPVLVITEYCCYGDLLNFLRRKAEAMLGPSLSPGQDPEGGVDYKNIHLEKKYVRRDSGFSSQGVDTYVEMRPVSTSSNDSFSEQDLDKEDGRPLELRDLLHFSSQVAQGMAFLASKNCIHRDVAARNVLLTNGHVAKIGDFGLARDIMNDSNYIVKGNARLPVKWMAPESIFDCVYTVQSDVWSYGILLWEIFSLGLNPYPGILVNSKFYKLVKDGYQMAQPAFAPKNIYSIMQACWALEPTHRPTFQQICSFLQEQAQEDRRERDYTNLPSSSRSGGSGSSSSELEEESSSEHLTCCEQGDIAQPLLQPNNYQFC
The assay is described as follows: CSF1R (FMS) kinase activity, Z'-LYTE biochemical assay (Invitrogen). The settings on record: ATP at or close to Km, 60 minute reaction at room temperature, read-out: Inhibitor activity versus CSF-1. On the procedure:
CSF1R (FMS) Kinase Activity
The ability of compounds to inhibit CSF1R (FMS) kinase activity was measured in an assay performed by Invitrogen (Paisley, UK). The Z′-LYTE™ biochemical assay employs a fluorescence-based, coupled-enzyme format and is based on the differential sensitivity of phosphorylated and non-phosphorylated peptides to proteolytic cleavage. The peptide substrate is labelled with two fluorophores—one at each end—that make up a FRET pair. In the primary reaction, the kinase transfers the gamma-phosphate of ATP to a single […] residue in a synthetic FRET-peptide. In the secondary reaction, a site-specific protease recognizes and cleaves non-phosphorylated FRET-peptides. Phosphorylation of FRET-peptides suppresses cleavage by the Development Reagent. Cleavage disrupts FRET between the donor (i.e. coumarin) and acceptor (i.e. fluorescein) fluorophores on the FRET-peptide, whereas uncleaved, phosphorylated FRET-peptides maintain FRET. A […] method, which calculates the ratio (the Emission Ratio) of donor emission to acceptor emission after excitation of the donor fluorophore at 400 nm, is used to quantitate reaction progress.
The final 10 μL Kinase Reaction consists of 0.12-12.3 ng CSF1R (FMS), 2 μM Tyr 01 Peptide and ATP in 50 mM HEPES pH 7.5, 0.01% BRIJ-35, 10 mM MgCl2, 1 mM EGTA. The assay is performed at an ATP concentration at, or close to, the Km. After the 60 minute Kinase Reaction incubation at room temperature, 5 μL of a 1:256 dilution of Development Reagent is added. The assay plate is incubated for a further 60 minutes at room temperature and read on a fluorescence plate reader.
Duplicate data points are generated from a ⅓ log dilution series of a stock solution of test compound in DMSO. Nine dilutions steps are made from a top concentration of 10 mM, and a ‘no compound’ blank is included. Data is collected and analysed using XLfit software from IDBS. The dose response curve is curve fitted to model number 205 (sigmoidal dose-response model). From the curve generated, the concentration giving 50% inhibition is determined and reported.

Consider `Nc1ncc(-c2ccc(C(=O)NC3CCN[C@@H](C(=O)OC4CCCC4)C3)cc2)nc1NCc1c(Cl)cccc1Cl` (stereo partly drawn) [Example 1, Cyclopentyl (2R)-4-[(4-{5-amino-6-[(2,6-dichlorobenzyl)amino]pyrazin-2-yl}benzoyl)amino]piperidine-2-carboxylate], for which the IC50 in the assay with MCP-1 was 0.3 to 1 µM; on CSF1R (FMS), less than 0.1 µM.
For `CN(C(=O)c1ccc(-c2cnc(N)c(NCc3c(Cl)cccc3Cl)n2)cc1)C1CCN[C@@H](C(=O)OC2CCCC2)C1` (stereo partly shown) [Example 2], the IC50 in the assay on MCP-1 is 0.3 to 1 µM; at CSF1R (FMS) it was 0.1 to 0.3 µM.
Take `Nc1ncc(-c2ccc(C(=O)N3CCNC(C(=O)OC4CCCC4)C3)cc2)nc1NCc1c(Cl)cccc1Cl` (stereo not shown) [Example 3, Cyclopentyl 4-(4-{5-amino-6-[(2,6-dichlorobenzyl)amino]pyrazin-2-yl}benzoyl)piperazine-2-carboxylate]: the values for the IC50 with MCP-1 and on CSF1R (FMS) were 0.3 to 1 µM and 0.1 to 0.3 µM, respectively.
On to `CC(C)(C)OC(=O)[C@H]1CC(NC(=O)c2ccc(-c3cnc(N)c(NCc4c(Cl)cccc4Cl)n3)cc2)CCN1` (stereo partly drawn) [Example 4, tert-Butyl (2R)-4-[(4-{5-amino-6-[(2,6-dichlorobenzyl)amino]pyrazin-2-yl}benzoyl)amino]piperidine-2-carboxylate], for which the IC50 on CSF1R (FMS) was in the range of 0.1 to 0.3 µM.
Turning to `CN(C(=O)c1ccc(-c2cnc(N)c(NCc3c(Cl)cccc3Cl)n2)cc1)C1CCN[C@@H](C(=O)OC(C)(C)C)C1` (stereo partly drawn) [Example 5, tert-Butyl (2R)-4-[(4-{5-amino-6-[(2,6-dichlorobenzyl)amino]pyrazin-2-yl}benzoyl)(methyl)amino]piperidine-2-carboxylate], the IC50 in the assay on MCP-1 is 1 to 5 µM; at CSF1R (FMS), less than 0.1 µM.
In the case of `CC(C)(C)OC(=O)C1CN(C(=O)c2ccc(-c3cnc(N)c(NCc4c(Cl)cccc4Cl)n3)cc2)CCN1` (stereo not shown) [Example 6, tert-Butyl 4-(4-{5-amino-6-[(2,6-dichlorobenzyl)amino]pyrazin-2-yl}benzoyl)piperazine-2-carboxylate], the IC50 lay in the range of 0.3 to 1 µM in the assay with MCP-1 and 0.1 to 0.3 µM at CSF1R (FMS).
In the same order, the values of `Nc1ncc(-c2ccc(CNC3CCN[C@@H](C(=O)OC4CCCC4)C3)cc2)nc1NCc1c(Cl)cccc1Cl` (stereo partly drawn) [Example 7, Cyclopentyl (2R)-4-[(4-{5-amino-6-[(2,6-dichlorobenzyl)amino]pyrazin-2-yl}benzyl)amino]piperidine-2-carboxylate] are 0.1 to 0.3 µM and less than 0.1 µM.
In the same order, the values of `Nc1ncc(-c2ccc(CNC3CCN[C@H](C(=O)OC4CCCC4)C3)cc2)nc1NCc1c(Cl)cccc1Cl` (stereo partly drawn) [Example 8, Cyclopentyl (2S)-4-[(4-{5-amino-6-[(2,6-dichlorobenzyl)amino]pyrazin-2-yl}benzyl)amino]piperidine-2-carboxylate] are 0.1 to 0.3 µM and less than 0.1 µM.
In the same order, the values of `Nc1ncc(-c2ccc(CN3CCNC(C(=O)OC4CCCC4)C3)cc2)nc1NCc1c(Cl)cccc1Cl` (stereo not shown) [Example 9, Cyclopentyl 4-(4-{5-amino-6-[(2,6-dichlorobenzyl)amino]pyrazin-2-yl}benzyl)piperazine-2-carboxylate] are less than 0.1 µM and 0.3 to 1 µM.
Regarding `Nc1ncc(-c2ccc(CN3CCN[C@H](C(=O)OC4CCCC4)C3)cc2)nc1NCc1c(Cl)cccc1Cl` [Example 10, Cyclopentyl (2S)-4-(4-{5-amino-6-[(2,6-dichlorobenzyl)amino]pyrazin-2-yl}benzyl)piperazine-2-carboxylate], the IC50 in the assay on MCP-1 is less than 0.1 µM; on CSF1R (FMS), 1 to 5 µM.
Regarding `CC(C)C[C@H](NCc1ccc(-c2cnc(N)c(NCc3c(Cl)cccc3Cl)n2)cc1)C(=O)OC1CCCC1` [Example 12, Cyclopentyl N-(4-{5-amino-6-[(2,6-dichlorobenzyl)amino]pyrazin-2-yl}benzyl)-L-leucinate], the IC50 at CSF1R (FMS) was greater than 5 µM.
Same read-out and setting: the same measure for `CC(C)C[C@H](NCc1ccc(-c2cnc(N)c(NCc3c(Cl)cccc3Cl)n2)cc1)C(=O)OC(C)(C)C` [Example 13, tert-Butyl N-(4-{5-amino-6-[(2,6-dichlorobenzyl)amino]pyrazin-2-yl}benzyl)-L-leucinate]: 1 to 5 µM; for `CC(C)C[C@H](NCc1ccc(-c2cnc(N)c(NCc3c(F)cccc3F)n2)cc1)C(=O)OC1CCCC1` [Example 15, Cyclopentyl N-(4-{5-amino-6-[(2,6-difluorobenzyl)amino]pyrazin-2-yl}benzyl)-L-leucinate]: greater than 5 µM.
Still for that read-out and setting: to `CC(C)C[C@H](NCc1ccc(-c2cnc(N)c(NCc3c(F)cccc3F)n2)cc1)C(=O)OC(C)(C)C` [Example 16, tert-Butyl N-(4-{5-amino-6-[(2,6-difluorobenzyl)amino]pyrazin-2-yl}benzyl)-L-leucinate] belongs 1 to 5 µM; to `Nc1ncc(-c2ccc(CNC3CCN[C@@H](C(=O)OC4CCCC4)C3)cc2)nc1NCc1c(F)cccc1Cl` (stereo partly drawn) [Example 17, Cyclopentyl (2R)-4-[(4-{5-amino-6-[(2-chloro-6-fluorobenzyl)amino]pyrazin-2-yl}benzyl)amino]piperidine-2-carboxylate], less than 0.1 µM; to `CC(C)(C)OC(=O)[C@H]1CC(NCc2ccc(-c3cnc(N)c(NCc4c(F)cccc4F)n3)cc2)CCN1` (stereo partly drawn) [Example 24, tert-Butyl (2R)-4-[(4-{5-amino-6-[(2,6-difluorobenzyl)amino]pyrazin-2-yl}benzyl)amino]piperidine-2-carboxylate], 0.3 to 1 µM.
Consider `CC(C)CN(Cc1ccc(-c2cnc(N)c(NCc3c(Cl)cccc3Cl)n2)cc1)C1CCN[C@@H](C(=O)OC2CCCC2)C1` (stereo partly drawn) [Example 29, Cyclopentyl (2R)-4-[(4-{5-amino-6-[(2,6-dichlorobenzyl)amino]pyrazin-2-yl}benzyl)(2-methylpropyl)amino]piperidine-2-carboxylate], for which, in the assay with MCP-1, the IC50 was in the range of 1 to 5 µM.
As for `CC(C)(C)OC(=O)C(C)(C)NCc1cccc(-c2cnc(N)c(NCc3c(Cl)cccc3Cl)n2)c1` [Example 41, tert-Butyl N-(3-{5-amino-6-[(2,6-dichlorobenzyl)amino]pyrazin-2-yl}benzyl)-2-methylalaninate formate salt], the IC50 on CSF1R (FMS) was in the range of 1 to 5 µM.
Consider `Nc1ncc(-c2cccc(CCN3CCNC(C(=O)OC4CCCC4)C3)c2)nc1NCc1c(Cl)cccc1Cl` (stereo not shown) [Example 52, Cyclopentyl 4-[2-(3-{5-amino-6-[(2,6-dichlorobenzyl)amino]pyrazin-2-yl}phenyl)ethyl]piperazine-2-carboxylate], for which the IC50 in the assay on MCP-1 was in the range of 0.1 to 0.3 µM.
As to `Nc1ncc(-c2cnn(CC(=O)NC3CCN[C@@H](C(=O)OC4CCCC4)C3)c2)nc1NCc1c(Cl)cccc1Cl` (stereo partly drawn) [Example 53, Cyclopentyl (2R)-4-{[(4-{5-amino-6-[(2,6-dichlorobenzyl)amino]pyrazin-2-yl}-1H-pyrazol-1-yl)acetyl]amino}piperidine-2-carboxylate], the IC50 at CSF1R (FMS) was in the range of 0.1 to 0.3 µM.
The same measure, in the same setting: to `CC(C)(C)OC(=O)[C@H]1CC(NC(=O)Cn2cc(-c3cnc(N)c(NCc4c(Cl)cccc4Cl)n3)cn2)CCN1` (stereo partly drawn) [Example 54, tert-Butyl (2R)-4-{[(4-{5-amino-6-[(2,6-dichlorobenzyl)amino]pyrazin-2-yl}-1H-pyrazol-1-yl)acetyl]amino}piperidine-2-carboxylate] belongs 0.1 to 0.3 µM; to `Nc1ncc(-c2ccc(CN3CCNC(C(=O)OC4CCCC4)C3)nc2)nc1NCc1c(Cl)cccc1Cl` (stereo not shown) [Example 59, Cyclopentyl 4-[(5-{5-amino-6-[(2,6-dichlorobenzyl)amino]pyrazin-2-yl}pyridin-2-yl)methyl]piperazine-2-carboxylate], 0.1 to 0.3 µM.
